Experimental data as given in patent EP0121352A1, “A leader sequence to promote the secretion of gene products” (priority 1983, dated 1984).

How the values were obtained:
[1] = biological target: T1, Carboxypeptidase G2 (CPG2) purified from E.coli clone pNM21 (cloned gene from Pseudomonas species strain RS-16) (Pseudomonas sp., UniProt P06621); test: Km determination of purified carboxypeptidase G2 synthesised in E.coli (cloned gene product), methotrexate as substrate; type: biochemical, Pseudomonas species strain RS-16 (expressed in E.coli); settings: CPG2 purified from E.coli carrying pNM21; read-out: Km vallues using methotrexate as substrate
T1 construct: Amino acids 23 to 415 are the CPG2 structural gene; made in house; host or cells: E. coli W5445 carrying plasmid pNM21
Experimental: (§1) CPG2 activity was determined after J L McCullough et al, J.Biol.Chem, 1971, 246, 7207. A.lml reaction cuvette containing 0.9 ml of 0.1 M Tris-HCl, pH 7.3 plus 0.2 mM ZnSO4 and 0.1 ml of 0.6 mM methotrexate was equilibrated at 37°C. Enzyme extract was added to the test cuvette and the decrease in absorbance at 320 nm measured using a Pye-Unicam SP1800 double-beam spectrophotometer. Enzyme activity per ml extract was calculated as Δ 320 nm absorbance/min divided by 8.3, which is equivalent to the hydrolysis of 1 µmol of MTX/min at 37°C.
(§2) To determine whether the cloned gene= product in E.coli had the same properties as CPG2 from the pseudomonad, enzyme was purified from E.coli carrying pNM21.

[2] = biological target: Carboxypeptidase G2 (CPG2) from Pseudomonas strain RS-16 (Pseudomonas sp., UniProt P06621); settings: read-out: Km vallues using methotrexate as substrate
Carboxypeptidase G2 (CPG2) from Pseudomonas strain RS-16, sequence (P06621 23-415): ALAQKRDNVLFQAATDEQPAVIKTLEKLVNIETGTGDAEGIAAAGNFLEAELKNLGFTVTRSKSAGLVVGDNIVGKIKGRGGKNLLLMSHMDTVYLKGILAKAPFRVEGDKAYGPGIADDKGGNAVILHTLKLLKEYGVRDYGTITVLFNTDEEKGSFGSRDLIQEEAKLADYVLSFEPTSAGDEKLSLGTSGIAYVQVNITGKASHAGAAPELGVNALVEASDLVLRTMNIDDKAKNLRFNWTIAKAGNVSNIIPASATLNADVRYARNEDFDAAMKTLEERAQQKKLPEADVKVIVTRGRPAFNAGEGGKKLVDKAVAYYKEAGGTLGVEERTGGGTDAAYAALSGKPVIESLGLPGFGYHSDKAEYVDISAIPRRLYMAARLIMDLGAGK
Experimental: as §1, §2

T1 sequence (P06621 23-415): as above

Compound: CN(Cc1cnc2nc(N)nc(N)c2n1)c1ccc(C(=O)N[C@@H](CCC(=O)O)C(=O)O)cc1 [methotrexate]
- Km [1]: 7.4 µM
- Km [2]: 8 µM
